The results in this text go back to patent US6057314A, “Low molecular weight bicyclic thrombin inhibitors” (Biochem Pharma Inc., priority 1997, dated 2000).

The subject of one test is carotid artery in rats. The test can be described thus: FeCl3 induced carotid arterial injury model (arterial thrombosis) in rats, time to occlusion. The test is classed as in vivo, rat (Sprague-Dawley). Conditions: Table 2. The method, then: Arterial Thrombosis Model
FeCl3 Induced Carotid Arterial Injury Model
Animals were laid on a 37° C. heating pad. The carotid artery was exposed through a midline cervical incision. Careful blunt dissection was used to isolate the vessel from the carotid sheath. […] A temperature probe (Physitemp*MT23/3) was placed between one of the pieces of tubing and the artery. Injury was induced by topical application on the carotid artery above the temperature probe of a small disc (3 mm dia.) of Whatman* No. 1 filter paper previously dipped in a 35% solution of FeCl3 […]. The vessel temperature was monitored for 60 minutes after application of FeCl3 as an indication of blood flow.
The time between the FeCl3 application and the time at which the vessel temperature decreased abruptly (>2.4° C.) was recorded as the time to occlusion of the vessel. Inhibitor compounds were given as an iv bolus (mg/kg) followed immediately by an iv infusion (μg/kg/min. via femoral vein). The dose of inhibitor needed to double the time to occlusion in comparison to control animals in which injury was induced in the absence of inhibitor was determined.

Test [1] addresses T1, human thrombin (Homo sapiens, UniProt P00734). The experiment in a line: Inhibition of amidolytic activity of human thrombin (Ki, fluorogenic substrate Tos-Gly-Pro-Arg-AMC). The test is classed as biochemical. The method, then:
In an assay to determine the inhibitory dissociation constant, Ki, for a given compound, a chromogenic or fluorogenic substrate of thrombin would be added to a solution containing a test compound and thrombin; the resulting catalytic activity of the enzyme would be spectrophotometrically determined. This type of assay is well known to those skilled in the art.
Determination of K1 Values for Heterocyclics
The steady-state velocity was then measured for a few minutes. The compounds of this invention were also pre-incubated with thrombin for 20 minutes at room temperature before adding the substrate.

Test [2] deals with T1, human thrombin. The experiment in a line: dTT assay (fibrin clotting assay, human thrombin and bovine fibrinogen). Type of test: biochemical. Conditions: Table 1; concentration required to double the clotting time; read-out: dTT IC50. From the text: The clotting time was plotted against the inhibitor concentrations and the IC50 was estimated as the inhibitor concentration required to double the clotting time relative to the control.

The mark [3] stands for this setting: ivb + inf 0.75-50 (iv bolus mg/kg, infusion μg/kg/min).
Where [4] appears, read: Table 1, read-out: Ki (inhibitory dissociation constant for human thrombin).

Each structure is given as a SMILES string. Where “and” joins values, the source holds several entries; their conditions need not be identical. Equal entries are not always repeated. Where two headings read alike, the source gives them in different places.

A word on the Ki: it is a measure of affinity in units of concentration, obtained from inhibition or displacement. What is called IC50 is the point on the concentration scale where inhibition reaches its midpoint.

With `N=C(N)NCCCC(NC(=O)[C@@H]1CS[C@@H]2CC[C@@H](CCCC3CCCCC3)C(=O)N21)C(=O)c1nccs1` (single isomer, unassigned) [Compound 0265a], the “M.O.T (min)+/-sem” value with carotid artery in rats (setting [3]) is 21.5 ± 10 min. For the same molecule, on human thrombin [1] (Table 2, read-out: Ki), the Ki came to 4 nM.
For the molecule `N=C(N)NCCCC(NC(=O)[C@@H]1CS[C@@H]2CC[C@@H](CCCC3CCCCC3)C(=O)N21)C(=O)c1nccs1` (single isomer, unassigned) [Compound 0265b], the “M.O.T (min)+/-sem” value with carotid artery in rats (setting [3]) amounted to 14.83 ± 2.3 min. Moreover, the Ki on human thrombin [1] (Table 2, read-out: Ki) was determined as 18 nM.
`N=C(N)NCCCC(NC(=O)C1CSC2CCC(N3C(=O)c4ccccc4C3=O)C(=O)N21)C(=O)c1nccs1` (single isomer, unassigned) [Compound 0295a]: the “M.O.T (min)+/-sem” value in the test on carotid artery in rats (setting [3]) stood at 20 ± 1 min. The Ki on human thrombin [1] (Table 2, read-out: Ki) is 1500 nM.
For `N=C(N)NCCCC(NC(=O)C1CSC2CCC(N3C(=O)c4ccccc4C3=O)C(=O)N21)C(=O)c1nccs1` (single isomer, unassigned) [Compound 0295b], the “M.O.T (min)+/-sem” value with carotid artery in rats (setting [3]) amounted to 19 ± 2.7 min.
Take `N=C(N)NCCCC(NC(=O)[C@@H]1CSC2CC[C@H](NC(=O)CCc3ccccc3)C(=O)N21)C(=O)c1nccs1` (single isomer, unassigned) [Compound 0305a]: the Ki at human thrombin [1] (Table 2, read-out: Ki) is 220 nM.
On the same count and under the same terms, for `N=C(N)NCCCC(NC(=O)[C@@H]1CSC2CC[C@H](NC(=O)CCc3ccccc3)C(=O)N21)C(=O)c1nccs1` (single isomer, unassigned) [Compound 0305b] the value was 12000 nM.
On to `N=C(N)NCCCC(NC(=O)[C@@H]1CSC[C@H]2CC[C@@H](Cc3ccccc3)C(=O)N21)C(=O)c1nccs1` (single isomer, unassigned) [Compound 0925a], for which the “M.O.T (min)+/-sem” value in the test on carotid artery in rats (setting [3]) came out at 20.3 ± 3.5 min. Besides, at human thrombin [1] (Table 2, read-out: Ki), the Ki is 7 nM.
For the molecule `N=C(N)NCCCC(NC(=O)[C@@H]1CSC[C@H]2CC[C@@H](Cc3ccccc3)C(=O)N21)C(=O)c1nccs1` (single isomer, unassigned) [Compound 0925b], at human thrombin [1] (Table 2, read-out: Ki), the inhibition constant Ki is 30 nM.
Regarding `N=C(N)NCCCC(NC(=O)[C@@H]1CSC[C@H]2CC[C@@H](CCc3ccccc3)C(=O)N21)C(=O)c1nccs1` (single isomer, unassigned) [Compound 0940a], the “M.O.T (min)+/-sem” value in the test on carotid artery in rats (setting [3]) was 15.2 ± 0.82 min. Also, the Ki at human thrombin [1] (Table 2, read-out: Ki) was determined as 16 nM.
For `N=C(N)NCCCC(NC(=O)[C@@H]1CSC[C@H]2CC[C@@H](CCc3ccccc3)C(=O)N21)C(=O)c1nccs1` (single isomer, unassigned) [Compound 0940b], the Ki at human thrombin [1] (Table 2, read-out: Ki) is 160 nM.
The same measure, in the same setting: for `N=C(N)NCCCC(NC(=O)[C@@H]1CS(=O)(=O)C[C@H]2CC[C@@H](Cc3ccccc3)C(=O)N21)C(=O)c1nccs1` (single isomer, unassigned) [Compound 0950a] the value was 150 nM; for `N=C(N)NCCCC(NC(=O)[C@@H]1CS(=O)(=O)C[C@H]2CC[C@@H](Cc3ccccc3)C(=O)N21)C(=O)c1nccs1` (single isomer, unassigned) [Compound 0950b], 1000 nM; for `N=C(N)NCCCC(NC(=O)C1CSC2CCC(NC(=O)CCc3ccccc3)C(=O)N21)C(=O)c1nccs1` (stereo not shown) [0315a + b], 45 nM.
Regarding `N=C(N)NCCCC(NC(=O)[C@@H]1CSCC2CC[C@@H](Cc3ccccc3)C(=O)N21)C(=O)c1nccs1` (stereo partly shown) [0925a + b], the “M.O.T (min)+/-sem” value in the test on carotid artery in rats (setting [3]) stood at 19.6 ± 0.2 min. Also, at human thrombin [1] (Table 2, read-out: Ki), the Ki was determined as 10 nM.
Consider `N=C(N)NCCCC(NC(=O)[C@@H]1CSC2CC[C@@H](CC3CCCCC3)C(=O)N21)C(=O)CCC(=O)N[C@@H](Cc1ccccc1)C(=O)N[C@@H](CCCNC(=N)N)C(N)=O` (stereo partly drawn) [Compound 0090, 6S-cyclohexylmethylhexahydro-5-oxo-5H-thiazolo[3,2-a]pyridine-3R-carboxamido((propylketo)Arg--Phe--Arg--NH2)], for which the Ki on human thrombin [1] (setting [4]) is 31 nM. For the same molecule, the IC50 at human thrombin [2] is 330 nM.
Regarding `N=C(N)NCCCC(NC(=O)[C@@H]1CSC2CC[C@@H](Cc3ccccc3)C(=O)N21)C(=O)CCC(=O)O` (stereo partly drawn) [Compound 0095, 6S-benzylhexahydro-5-oxo-5H-thiazolo[3,2-a]pyridine-3R-carboxamido((propanoic acid)ketoarginine)], the Ki at human thrombin [1] (setting [4]) stood at 26000 nM.
As for `N=C(N)NCCCC(NC(=O)[C@@H]1CS[C@H]2CC[C@@H](Cc3ccccc3)C(=O)N21)C(=O)c1nc2ccccc2s1` (stereo partly shown) [Compound 0210, 6-Benzyl-5-oxo-hexahydro-thiazolo[3,2-a]pyridine-3-carboxylic acid[1-(benzothiazole-2-carbonyl)-4-guanidino-butyl]-amide], the “M.O.T (min)+/-sem” value with carotid artery in rats (setting [3]) is 20.13 ± 3.4 min. In addition, the Ki at human thrombin [1] (Table 2, read-out: Ki) turned out to be 8 nM.
`CC12CCC(CCc3ccccc3)C(=O)N1C(C(=O)NC(CCCNC(=N)N)C(=O)c1nc3ccccc3s1)CS2` (stereo not shown) [Compound 0225, 8a-Methyl-5-oxo-6-phenethyl-hexahydro-thiazolo[3,2-a]pyridine-3-carboxylic acid[1-(benzothiazole-2-carbonyl)-4-guanidino-butyl]-amide]: the “M.O.T (min)+/-sem” value with carotid artery in rats (setting [3]) came out at 23 ± 7 min.
`C[C@]12CC[C@@H](Cc3ccc4nc(C(F)(F)F)ccc4c3)C(=O)N1[C@H](C(=O)NC(CCCNC(=N)N)C(=O)c1nc3ccccc3s1)CS2` (stereo partly shown) [Compound 0240, 8a-Methyl-5-oxo-6-(2-trifluoromethyl-quinolin-6-ylmethyl)-hexahydro-thiazolo[3,2-a]pyridine-3-carboxylic acid[1-(benzothiazole-2-carbonyl)-4-guanidino-butyl]-amide]: in the test with carotid artery in rats (setting [3]), the “M.O.T (min)+/-sem” value stood at 17 ± 2.6 min. In addition, the Ki on human thrombin [1] (Table 2, read-out: Ki) turned out to be 18 nM.
In the case of `N=C(N)NCCCC(NC(=O)[C@@H]1CS[C@@H]2CC[C@@H](Cc3ccccc3)C(=O)N21)C(=O)c1nccs1` (stereo partly shown) [Compound 0245, 6-Benzyl-5-oxo-hexahydro-thiazolo[3,2-a]pyridine-3-carboxylic acid[4-guanidino-1-(thiazole-2-carbonyl)butyl]-amide], the “M.O.T (min)+/-sem” value with carotid artery in rats (ivb + inf 0.5-30 (iv bolus mg/kg, infusion μg/kg/min)) came out at 27 ± 3 min; with carotid artery in rats (setting [3]) it was 22.6 ± 2.6 min. For the same molecule, on human thrombin [1] (Table 2, read-out: Ki), the Ki was 5 nM and 8 nM.
As for `Cn1ccnc1C(=O)C(CCCNC(=N)N)NC(=O)[C@@H]1CS[C@@H]2CC[C@@H](Cc3ccccc3)C(=O)N21` (stereo partly shown) [Compound 0255, 6-Benzyl-5-oxo-hexahydro-thiazolo[3,2-a]pyridine-3-carboxylic acid[4-guanidino-1-(1-methyl-1H imidazole-2-carbonyl)butyl]-amide], the inhibitory constant (Ki) at human thrombin [1] (Table 2, read-out: Ki) is 500 nM.
Take `CC12CCC(Cc3ccccc3)C(=O)N1C(C(=O)NC(CCCNC(=N)N)C(=O)c1nccs1)CS2` (stereo not shown) [Compound 0260, 6-Benzyl-8a-methyl-5-oxo-hexahydro-thiazolo[3,2-a]pyridine-3-carboxylic acid[4-guanidino-1-(thiazole-2-carbonyl)-butyl]-amide]: in the test on carotid artery in rats (setting [3]), the “M.O.T (min)+/-sem” value was found to be 14.83 ± 0.2 min.
Consider `CC12CCC(Cc3ccc4nc(C(F)(F)F)ccc4c3)C(=O)N1C(C(=O)NC(CCCNC(=N)N)C(=O)c1nccs1)CS2` (stereo not shown) [Compound 0285, 8a-Methyl-5-oxo-6-(2-trifluoromethyl-quinolin-6-ylmethyl)-hexahydro-thiazolo[3,2-a]pyridine-3-carboxylic acid[4-guanidino-1-(thiazole-2-carbonyl)-butyl]-amide], for which the “M.O.T (min)+/-sem” value with carotid artery in rats (setting [3]) is 11.33 ± 1.34 min.
Take `N=C(N)NCCCC(NC(=O)C1CSC2CCC(NC(=O)CCc3ccccc3)C(=O)N21)C(=O)c1nccs1` (stereo not shown) [Compound 0315b]: the “M.O.T (min)+/-sem” value in the test with carotid artery in rats (setting [3]) is 30.33 ± 8.4 min. In addition, the Ki at human thrombin [1] (Table 2, read-out: Ki) stood at 10 nM.
With `N=C(N)NCCCC(NC(=O)[C@@H]1CC[C@H]2CN(C(=O)CCc3ccccc3)CC(=O)N21)C(=O)c1nccs1` (stereo partly shown) [Compound 0340, 4-Oxo-2-(3-phenyl-propionyl)-octahydro-pyrrolo[1,2-a]-pyrazine-6-carboxylic acid [4-guanidino-1-(thiazole-2-carbonyl)-butyl]-amide], the “M.O.T (min)+/-sem” value with carotid artery in rats (ivb + inf 0.25-20 (iv bolus mg/kg, infusion μg/kg/min)) is on record as 36+/-9,6 min. Also, the Ki on human thrombin [1] (Table 2, read-out: Ki) stood at 0.6 nM.
With `Cc1cnc(C(=O)C(CCCNC(=N)N)NC(=O)[C@@H]2CC[C@H]3CN(C(=O)CCc4ccccc4)CC(=O)N32)s1` (stereo partly shown) [Compound 0345, 4-Oxo-2-(3-phenyl-propionyl)-octahydro-pyrrolo[1,2-a]pyrazine-6-carboxylic acid[4-guanidino-1-(5-methyl-thiazole-2-carbonyl)-butyl]-amide], the “M.O.T (min)+/-sem” value with carotid artery in rats (setting [3]) came out at 50 ± 5.86 min. For the same molecule, on human thrombin [1] (Table 2, read-out: Ki), the Ki came to 2 nM.
Turning to `N=C(N)NCCCC(NC(=O)[C@@H]1CSCC2CCCC(=O)N21)C(=O)c1nccs1` (stereo partly shown) [Compound 0915, 6-Oxo-octahydro-pyrido[2,1-c][1,4]thiazine-4-carboxylic acid[4-guanidino-1-(thiazole-2-carbonyl)-butyl]-amide], in the test with carotid artery in rats (setting [3]), the “M.O.T (min)+/-sem” value was 15+/-1,3 min. Moreover, the Ki at human thrombin [1] (Table 2, read-out: Ki) is 1600 nM.
Take `N=C(N)NCCCC(NC(=O)[C@@H]1CSCC2CC[C@H](Cc3ccccc3)C(=O)N21)C(=O)c1nccs1` (stereo partly shown) [Compound 0935, 7-Benzyl-6-oxo-octahydro-pyrido[2,1-c][1,4]thiazine-4-carboxylic acid[4-guanidino-1-(thiazole-2-carbonyl)butyl]-amide]: at human thrombin [1] (Table 2, read-out: Ki), the Ki turned out to be 120 nM.
